In patent publication US20100316729A1, “Use of Hyperbaric Conditions to Provide Neuroprotection” (AIR PRODUCTS AND CHEMICALS, INC., priority 2007, published 2010):
“Also recorded” adds a separate entry of the source.

Tested on: organotypic hippocampal slice cultures (focal trauma to the CA1 region)
Experiment: in vitro model of traumatic brain injury: focal mechanical trauma to organotypic hippocampal slices, injury quantified by propidium iodide fluorescence
Format: cell-based, C57/BL6 mice
Details: for effect of added pressure of gas on development of total injury, highest added pressure / effect of added pressure of gas on development of total injury, low added pressures: gas added to 1 atm of 95% air/5% CO2, FIG. 4 / FIG. 5; for effect of added pressure of gas on development of total injury, highest added pressure: highest pressure tested (about 2 atm added, about 3 atm total); for effect of added pressure of gas on development of total injury, low added pressures: low added pressures (up to about 1 atm); for predicted level of normalized injury after 72 hours / observed degree of normalized injury after 72 hours: normobaric; for predicted level of normalized injury after 72 hours: 75% test gas replacing nitrogen, calculated from dashed lines of FIG. 4 / FIG. 5; for observed degree of normalized injury after 72 hours: 75% test gas/20% oxygen/5% CO2 (test gas substituted for nitrogen), 37° C., injury relative to control (75% nitrogen, 1 atm, 72 h) = 1
Excerpt: The properties of xenon and other gases were investigated in an in vitro model of traumatic brain injury (as described below in greater detail, under the heading “Example”). The model chosen involved creating a focal mechanical trauma centered on the CA1 region of cultured hippocampal brain slices, and assessing neurological injury using propidium iodide staining. A small solenoid retains a stylus 5 mm above a cultured hippocampal slice which is positioned using a micromanipulator. A fiber-optic light source illuminates the slice from beneath. As shown in (B) the stylus is constrained in a glass capillary and positioned just above the CA1 region of the hippocampus.
Organotypic hippocampal slice cultures were prepared as reported by Stoppini L, et al in “A simple method for organotypic cultures of nervous tissue” J Neurosci Methods 1991; 37:173-82, subject to some modifications. Briefly, brains were removed from seven-day-old C57/BL6 mice pups (Harlan UK Ltd., Bicester, Oxfordshire, UK) and placed in ice-cold “preparation” medium. The preparation medium contained Gey's balanced salt solution and 5 mg ml^−1 D-glucose (BDH Chemicals Ltd., Poole, Dorset, UK). The hippocampi were removed from the brains and 400 μm thick transverse slices were prepared using a McIllwain tissue chopper. Slices were transferred into ice-cold preparation medium, gently separated and then placed onto tissue culture inserts (Millicell-CM, Millipore Corporation, Billerica, Mass.) which were inserted into a six-well tissue culture plate. The wells contained “growth” medium which consisted of 50% Minimal Essential Media Eagle, 25% Hank's balanced salt solution, 25% inactivated horse serum, 2 mM L-glutamine, 5 mg ml^−1 D-glucose (BDH) and 1% antibiotic-antimycotic suspension. Slices were incubated at 37° C. in a 95% air/5% CO2 humidified atmosphere. The growth medium was changed every three days. Experiments were carried out after 14 days in culture.
After the hippocampal slices had been in culture for 14 days, the growth medium was changed to “experimental” medium. The experimental medium was serum-free and consisted of 75% Minimal Essential Media Eagle, 25% Hank's balanced salt solution, 2 mM L-glutamine, 5 mg ml^−1 D-glucose, 1% antibiotic-antimycotic suspension and 4.5 μM propidium iodide.
The trauma to the slices was produced with a specially designed apparatus (FIG. 1) which was based on published descriptions (Adamchik Y, et al “Methods to induce primary and secondary traumatic damage in organotypic hippocampal slice cultures” Brain Res Brain Res Protoc 2000; 5:153-8 and Adembri C, et al “Erythropoietin attenuates post-traumatic injury in organotypic hippocampal slices” J Neurotrauma 2004; 21:[…], 21). Under a stereomicroscope a stylus was positioned 5 mm above the CA1 region of the hippocampus using a three-axis micromanipulator. The stylus dropped onto the slice with an impact of 3.5 μJ when power to a small electromagnet was switched off. […] The distal part of the stylus was smooth and rounded in order to prevent perforation of the slice and the impact produced a focal injury with a diameter of 750±17 μm (mean±SD).
After traumatizing the CA1 region, the culture trays were transferred to a small pressure chamber which contained a high-speed fan for rapid gas mixing. The pressure chamber was capable of maintaining a constant pressure of up to six atmospheres for several days. The pressure chamber was housed in an incubator which was set at 37° C. for normothermic experiments or 32° C. for experiments at moderate hypothermia. Subsequently, the pressure chamber (gas volume 0.925 litre) was flushed with humidified control gas (95% air and 5% CO2) for 5 min at 5 litres min^−1 which ensures better than 99.99% gas replacement. After flushing, the pressure chamber was sealed, and slices under these conditions were considered to be the “injury controls” (75% nitrogen/20% oxygen/5% CO2). […]

Structure (SMILES) | effect of added pressure of gas on development of total injury, highest added pressure | effect of added pressure of gas on development of total injury, low added pressures | predicted level of normalized injury after 72 hours | observed degree of normalized injury after 72 hours | theoretical effect of increased gas level per se (effects of helium/pressure subtracted) (dashed line in FIG. 4, independent of the effects of pressure) | injury outcome with added nitrogen compared with added helium (nitrogen substituted for helium as added gas, all pressures 0.25-2 atm added, FIG. 4)
[He] [helium] | came back close to control levels | potent neuroprotection; also recorded: injury decreased | 0.75 | 0.67±0.10 |  | 
N#N [nitrogen] |  |  |  |  | detrimental in a fashion that is roughly linear with increasing amounts | significantly worse injury outcome
[Xe] [xenon] | toxicity; also recorded: significant neurotoxicity | marked neuroprotection | 0.59 | 0.50±0.04 |  | 
